Experimental data reported in ChEMBL document CHEMBL1201862, “PubChem BioAssay data set” (2004).
Calls of active or inactive are those of the source.

Columns and labels:
Cytochrome P450 2C19 = Cytochrome P450 2C19 (Homo sapiens, UniProt P33261); assay: Cytochrome panel assay with activity outcomes. Panel member name: p450-cyp2c19 Compounds with AC50 equal or less than 10 uM are considered active; type: functional
Cytochrome P450 1A2 = target: T1, Cytochrome P450 1A2 (Homo sapiens, UniProt P05177);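 also: PubChem cytochrome P450 panel assay, CYP1A2 panel member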
T1 sequence (P05177 whole entry): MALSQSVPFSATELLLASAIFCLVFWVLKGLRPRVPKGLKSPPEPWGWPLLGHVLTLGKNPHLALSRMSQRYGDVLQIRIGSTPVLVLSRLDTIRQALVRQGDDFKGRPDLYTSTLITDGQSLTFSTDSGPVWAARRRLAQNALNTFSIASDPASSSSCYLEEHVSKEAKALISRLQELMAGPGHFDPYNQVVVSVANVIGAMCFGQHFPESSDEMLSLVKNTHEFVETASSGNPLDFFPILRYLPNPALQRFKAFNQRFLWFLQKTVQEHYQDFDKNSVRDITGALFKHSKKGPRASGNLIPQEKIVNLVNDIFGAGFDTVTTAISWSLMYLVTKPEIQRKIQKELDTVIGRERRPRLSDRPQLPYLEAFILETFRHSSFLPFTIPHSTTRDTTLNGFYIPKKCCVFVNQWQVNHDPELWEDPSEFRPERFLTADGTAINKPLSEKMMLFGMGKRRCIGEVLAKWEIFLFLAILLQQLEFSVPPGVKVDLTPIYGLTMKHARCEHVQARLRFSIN

[1] = target: T2, Corticotropin-releasing factor receptor 2/Corticotropin-releasing factor-binding protein (Homo sapiens, UniProt P24387+Q13324); assay: activators of CRF receptor 2 with binding protein – uHTS hits, confirmation (AID 602473); type: functional; conditions: read-out: EC50_Mean
T2 sequence (Q13324 whole entry): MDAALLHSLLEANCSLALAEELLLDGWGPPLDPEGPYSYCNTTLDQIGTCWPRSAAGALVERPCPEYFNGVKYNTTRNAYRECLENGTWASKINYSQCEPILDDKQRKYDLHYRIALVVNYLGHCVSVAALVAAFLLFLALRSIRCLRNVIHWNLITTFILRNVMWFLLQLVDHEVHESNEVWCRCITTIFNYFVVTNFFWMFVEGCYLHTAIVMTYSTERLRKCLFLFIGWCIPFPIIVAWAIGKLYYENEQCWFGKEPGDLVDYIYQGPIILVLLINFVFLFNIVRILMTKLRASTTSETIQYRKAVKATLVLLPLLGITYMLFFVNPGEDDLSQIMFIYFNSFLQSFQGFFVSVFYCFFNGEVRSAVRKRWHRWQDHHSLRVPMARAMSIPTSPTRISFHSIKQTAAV
T2 sequence (P24387 whole entry): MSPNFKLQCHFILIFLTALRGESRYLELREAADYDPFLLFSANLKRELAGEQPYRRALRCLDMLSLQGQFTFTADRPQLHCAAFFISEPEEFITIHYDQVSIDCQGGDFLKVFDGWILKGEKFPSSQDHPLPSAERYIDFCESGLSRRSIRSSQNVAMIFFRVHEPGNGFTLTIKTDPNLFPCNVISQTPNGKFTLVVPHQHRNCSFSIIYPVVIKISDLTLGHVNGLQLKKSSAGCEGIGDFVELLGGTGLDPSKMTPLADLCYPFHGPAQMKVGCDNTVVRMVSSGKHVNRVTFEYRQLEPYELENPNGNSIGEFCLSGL

Cytochrome P450 3A4 = Cytochrome P450 3A4 (Homo sapiens, UniProt P08684);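 also: CYP3A4 tested as one member of a cytochrome P450 panel screen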
Cytochrome P450 2C9 = Cytochrome P450 2C9 (Homo sapiens, UniProt P11712)
[2] = tested on: Streptococcus sp. 'group A'; assay: Streptococcus pyogenes SK(-)GAS viability under kanamycin – luminescence, BacTiterGlo, confirmation, counter-screen for streptokinase expression inhibitor project, dose response (AID 1900); type: functional, organism-based
Streptokinase A = target: T3, Streptokinase A (Streptococcus pyogenes serotype M1, UniProt P10520); assay: viability-normalized secreted streptokinase activity reduction – plasminogen activation absorbance, OD405, dose response (AID 1914); type: functional, Streptococcus pyogenes M1 GAS;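 also: secreted streptokinase activity via plasminogen activation per viability signal from cell pellet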
T3 sequence (P10520 whole entry): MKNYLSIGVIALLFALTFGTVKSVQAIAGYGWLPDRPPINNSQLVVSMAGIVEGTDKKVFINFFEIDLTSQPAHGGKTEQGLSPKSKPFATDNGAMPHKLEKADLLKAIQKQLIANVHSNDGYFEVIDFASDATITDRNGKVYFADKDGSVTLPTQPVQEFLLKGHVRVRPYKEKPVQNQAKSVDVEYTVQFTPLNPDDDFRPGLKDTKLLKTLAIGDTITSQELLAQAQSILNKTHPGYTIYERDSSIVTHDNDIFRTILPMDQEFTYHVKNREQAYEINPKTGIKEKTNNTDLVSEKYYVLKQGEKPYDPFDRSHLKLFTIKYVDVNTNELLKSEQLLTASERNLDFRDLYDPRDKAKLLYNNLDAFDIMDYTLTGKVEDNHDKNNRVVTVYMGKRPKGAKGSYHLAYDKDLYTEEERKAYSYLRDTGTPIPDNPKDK

Streptococcus = assay: GAS UMAA2166 growth inhibition – luminescence, BacTiterGlo, counter-screen for streptokinase expression inhibitor project, dose response (AID 1915); type: functional, organism-based;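 also: potency for reduction of bacterial viability or growth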
[3] = Trypanosoma cruzi growth suppression in host cells – NIH3T3 host cells, beta-gal luminescence, confirmation (AID 2044); type: functional, cell-based;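 also: intracellular parasites grown in NIH/3T3 mouse fibroblasts as host cells; luminescent beta-galactosidase reporter signal from transgenic T. cruzi replicating inside host cells; inhibitors lower the luminescence signal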
[4] = NIH3T3 cell viability loss – ATP luminescence, mouse fibroblasts, counter-screen, dose response (AID 2010); type: functional, cell-based;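 also: cells exposed to compound for about 90 hours before reading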

Cytochrome P450 2C9, sequence (P11712 whole entry): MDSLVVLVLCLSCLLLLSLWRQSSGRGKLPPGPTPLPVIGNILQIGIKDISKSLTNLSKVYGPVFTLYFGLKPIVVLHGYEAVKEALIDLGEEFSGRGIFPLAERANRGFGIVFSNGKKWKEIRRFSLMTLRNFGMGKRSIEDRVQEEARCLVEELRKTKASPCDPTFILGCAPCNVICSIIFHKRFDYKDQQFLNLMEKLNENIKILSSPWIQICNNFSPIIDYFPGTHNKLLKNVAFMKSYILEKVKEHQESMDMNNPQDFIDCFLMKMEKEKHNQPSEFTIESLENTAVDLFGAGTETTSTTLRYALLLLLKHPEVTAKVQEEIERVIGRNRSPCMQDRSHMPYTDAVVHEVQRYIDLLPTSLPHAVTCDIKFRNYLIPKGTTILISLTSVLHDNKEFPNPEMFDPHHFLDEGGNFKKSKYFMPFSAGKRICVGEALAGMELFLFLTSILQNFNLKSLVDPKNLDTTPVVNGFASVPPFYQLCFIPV
Cytochrome P450 2C19, sequence (P33261 whole entry): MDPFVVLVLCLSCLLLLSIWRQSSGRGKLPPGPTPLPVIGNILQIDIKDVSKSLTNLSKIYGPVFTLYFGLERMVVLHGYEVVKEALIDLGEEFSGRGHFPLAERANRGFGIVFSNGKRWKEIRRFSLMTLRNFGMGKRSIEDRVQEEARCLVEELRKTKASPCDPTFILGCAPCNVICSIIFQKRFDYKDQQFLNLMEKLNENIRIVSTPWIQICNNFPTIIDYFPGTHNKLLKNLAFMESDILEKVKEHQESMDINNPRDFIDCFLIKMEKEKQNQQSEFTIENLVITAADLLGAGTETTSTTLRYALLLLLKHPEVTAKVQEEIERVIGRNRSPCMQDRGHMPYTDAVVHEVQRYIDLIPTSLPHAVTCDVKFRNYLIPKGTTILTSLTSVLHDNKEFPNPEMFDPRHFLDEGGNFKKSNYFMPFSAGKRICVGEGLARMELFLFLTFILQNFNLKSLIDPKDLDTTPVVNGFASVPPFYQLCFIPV
Cytochrome P450 3A4, sequence (P08684 whole entry): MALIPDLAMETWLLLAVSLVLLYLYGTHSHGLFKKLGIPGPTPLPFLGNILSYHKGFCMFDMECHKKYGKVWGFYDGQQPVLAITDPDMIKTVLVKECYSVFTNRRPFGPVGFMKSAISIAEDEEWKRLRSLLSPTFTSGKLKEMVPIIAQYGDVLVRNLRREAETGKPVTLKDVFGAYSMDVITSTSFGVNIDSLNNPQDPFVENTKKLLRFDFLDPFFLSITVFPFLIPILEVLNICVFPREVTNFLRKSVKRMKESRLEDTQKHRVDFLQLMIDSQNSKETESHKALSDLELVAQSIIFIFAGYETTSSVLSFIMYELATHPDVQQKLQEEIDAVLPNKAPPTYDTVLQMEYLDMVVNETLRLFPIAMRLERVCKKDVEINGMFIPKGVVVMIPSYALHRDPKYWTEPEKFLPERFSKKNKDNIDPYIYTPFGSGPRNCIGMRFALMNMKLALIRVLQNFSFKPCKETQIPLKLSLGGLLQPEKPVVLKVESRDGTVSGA

CS(=O)(=O)Nc1cccc(-c2ccc3ncnc(NC4CC4)c3c2)c1
AC50 (Cytochrome P450 2C19): inconclusive

Oc1cc(O)c2c(c1)O[C@H](c1ccc(O)c(O)c1)[C@@H](O)[C@@H]2c1c(O)cc(O)c2c1O[C@@H](c1ccc(O)c(O)c1)[C@H](O)C2
AC50 (Cytochrome P450 1A2): 2.51 µM (inconclusive)

CCC(C(=O)Nc1ccc(C(C)C)cc1)c1ccccc1 (centres undefined)
EC50 [1]: 6.87 µM (active)

CCN(CC)c1ccc(NC(=O)CN2CCN(c3ccccc3F)CC2)cc1
AC50 (Cytochrome P450 1A2): 28.2 µM (inconclusive) | AC50 (Cytochrome P450 3A4): 15.8 µM (inconclusive)

O=C(O)c1ccccc1C(=O)NCc1ccc(F)cc1
AC50 (Cytochrome P450 2C19; read-out: AC50): 28.2 µM (inconclusive)

O=C1c2ccccc2-c2ccc(NC(=O)[C@H]3CCCC[C@@H]3C(=O)O)cc21
AC50 (Cytochrome P450 1A2): 1 µM (inconclusive)

Cn1c(SCC(=O)NC2CC2)nnc1-c1cccc(NC(=O)c2ccccc2F)c1
AC50 (Cytochrome P450 2C9): 17.8 µM (inconclusive)

CCn1c(COc2ccc(C)cc2)nnc1SCc1ccc(C#N)cc1
EC50 [2]: > 150 µM (not active) | EC50 (Streptokinase A): > 150 µM (not active) | AC50 (Cytochrome P450 1A2): 28.2 µM (inconclusive) | EC50 (Streptococcus): > 150 µM (not active)

O=C(/C=C/c1ccccc1)NC(NC(=S)Nc1cccc(Cl)c1)C(Cl)(Cl)Cl (centres undefined)
EC50 [2]: 3.62 µM (active) | EC50 (Streptokinase A): > 150 µM (not active) | EC50 [3]: 1.68 µM (active) | EC50 (Streptococcus): 6.3 µM (active) | EC50 [4]: > 60 µM (inconclusive)

Clc1ccc(CSc2ncnc3c2ncn3[C@@H]2CCCCO2)cc1
AC50 (Cytochrome P450 1A2): 1.58 µM (inconclusive)

O=S1(=O)[C@@H](c2ccccc2)[C@H](N2CCCCC2)[C@H]1[C@H]1C[C@H]2c3ccccc3[C@@H]1c1ccccc12
AC50 (Cytochrome P450 2C9): 7.94 µM (inconclusive)

N[C@H](C(=O)O)[C@@H]1[C@@H](C(=O)O)C1(F)F
AC50 (Cytochrome P450 1A2): 31.6 µM (inconclusive)

O=S(=O)(N=C(Nc1ccccn1)c1ccccc1)c1ccccc1
AC50 (Cytochrome P450 2C19; read-out: AC50): 15.8 µM (inconclusive) | AC50 (Cytochrome P450 1A2): 14.1 µM (inconclusive) | AC50 (Cytochrome P450 3A4): 28.2 µM (inconclusive)

N#CC1=C(N)OC2=C(C(=O)CCC2)C12CCC1(CC2)OCCO1
AC50 (Cytochrome P450 1A2): 25.1 µM (inconclusive)

COC(=O)c1ccccc1OCC(=O)N1CCN(c2ccc(OC)cc2)CC1
AC50 (Cytochrome P450 2C9): 17.8 µM (inconclusive)

Cc1nnc(SCC2=C(C(=O)O)N3C(=O)C(NC(=O)c4cc(F)c(F)cc4Cl)C3SC2)s1 (centres undefined)
EC50 [2]: 0.515 µM (active) | EC50 (Streptokinase A): > 150 µM (not active) | EC50 (Streptococcus): 0.815 µM (active)

NC(=O)Nc1n[nH]c(-c2ccccc2)n1
AC50 (Cytochrome P450 1A2): 3.16 µM (inconclusive)

CC(C)(C)C1CCc2c(C(=O)N/N=C/c3cccs3)csc2C1 (centres undefined)
AC50 (Cytochrome P450 2C9): 7.94 µM (inconclusive)

COC(=O)c1[nH]c(C)c(C(=O)C2=C(O)C(=O)N(CCN(C)C)C2c2cccs2)c1C (centres undefined)
AC50 (Cytochrome P450 2C19; read-out: AC50): 14.1 µM (inconclusive)

O=c1c(-c2ccc(F)c(F)c2)nc2cncnc2n1-c1ccccc1
AC50 (Cytochrome P450 2C9): 15.8 µM (inconclusive) | AC50 (Cytochrome P450 3A4): 20 µM (inconclusive)

c1cncc(-c2cncnc2NC2CCNCC2)c1
AC50 (Cytochrome P450 1A2): 12.6 µM (inconclusive)

Cc1ccsc1C1C=C(c2cccc(Br)c2)Nc2ncnn21 (centres undefined)
EC50 [2]: 7.49 µM (active) | EC50 (Streptokinase A): > 150 µM (not active) | EC50 (Streptococcus): > 150 µM (not active)

COc1ccc2oc(-c3ccc(C)c(NC(=O)c4ccc(N5CCOCC5)c([N+](=O)[O-])c4)c3)nc2c1
AC50 (Cytochrome P450 2C19; read-out: AC50): 5.62 µM (inconclusive) | AC50 (Cytochrome P450 2C9): 3.16 µM (inconclusive)
